Results reported in the NIST ThermoML archive (doi:10.1021/je034290l).
Numbers after ± are expanded uncertainties.

Tests used:
[1] = Liquid
[2] = refractive index (Na D-line) (dimensionless); conditions: 318.15 K; 101.33 kPa; Liquid; Standard Abbe refractometry

## CCC(=O)OC [methyl propanoate]
[1]; 318.15 K, 101.33 kPa
  mass density: 884.3 ± 0.51 kg/m3
[1]; 325.88 K
  vapor or sublimation pressure: 40.08 ± 0.7 kPa
[1]; 327.07 K
  vapor or sublimation pressure: 42.57 ± 0.71 kPa
[1]; 328.03 K
  vapor or sublimation pressure: 44.13 ± 0.72 kPa
[1]; 329 K
  vapor or sublimation pressure: 45.29 ± 0.72 kPa
[1]; 329.68 K
  vapor or sublimation pressure: 46.72 ± 0.73 kPa
[1]; 330.24 K
  vapor or sublimation pressure: 47.97 ± 0.74 kPa
[1]; 330.7 K
  vapor or sublimation pressure: 49.34 ± 0.74 kPa
[1]; 332 K
  vapor or sublimation pressure: 50.58 ± 0.75 kPa
[1]; 332.74 K
  vapor or sublimation pressure: 51.89 ± 0.75 kPa
[1]; 333.19 K
  vapor or sublimation pressure: 53.37 ± 0.76 kPa
[1]; 334.04 K
  vapor or sublimation pressure: 54.63 ± 0.77 kPa
[1]; 334.49 K
  vapor or sublimation pressure: 55.93 ± 0.77 kPa
[1]; 335.63 K
  vapor or sublimation pressure: 57.49 ± 0.78 kPa
[1]; 335.97 K
  vapor or sublimation pressure: 58.57 ± 0.79 kPa
[1]; 336.7 K
  vapor or sublimation pressure: 60.05 ± 0.8 kPa
[1]; 337.5 K
  vapor or sublimation pressure: 61.5 ± 0.8 kPa
[1]; 338.06 K
  vapor or sublimation pressure: 62.73 ± 0.81 kPa
[1]; 338.52 K
  vapor or sublimation pressure: 64.17 ± 0.82 kPa
[1]; 339.43 K
  vapor or sublimation pressure: 66.58 ± 0.83 kPa
[1]; 339.71 K
  vapor or sublimation pressure: 67.89 ± 0.83 kPa
[1]; 340.73 K
  vapor or sublimation pressure: 69.17 ± 0.84 kPa
[1]; 341.07 K
  vapor or sublimation pressure: 70.53 ± 0.85 kPa
[1]; 341.52 K
  vapor or sublimation pressure: 71.89 ± 0.86 kPa
[1]; 341.72 K
  vapor or sublimation pressure: 72.42 ± 0.86 kPa
[1]; 342.35 K
  vapor or sublimation pressure: 73.37 ± 0.86 kPa
[1]; 342.6 K
  vapor or sublimation pressure: 75.37 ± 0.87 kPa
[1]; 342.88 K
  vapor or sublimation pressure: 75.83 ± 0.87 kPa
[1]; 343.25 K
  vapor or sublimation pressure: 75.91 ± 0.88 kPa
[1]; 343.95 K
  vapor or sublimation pressure: 77.99 ± 0.89 kPa
[1]; 344.15 K
  vapor or sublimation pressure: 78.43 ± 0.89 kPa
[1]; 344.25 K
  vapor or sublimation pressure: 78.74 ± 0.89 kPa
[1]; 344.75 K
  vapor or sublimation pressure: 79.89 ± 0.9 kPa
[1]; 345.4 K
  vapor or sublimation pressure: 82.35 ± 0.91 kPa
[1]; 345.65 K
  vapor or sublimation pressure: 82.59 ± 0.91 kPa
[1]; 346.32 K
  vapor or sublimation pressure: 84.18 ± 0.92 kPa
[1]; 346.57 K
  vapor or sublimation pressure: 85.43 ± 0.93 kPa
[1]; 346.65 K
  vapor or sublimation pressure: 86.74 ± 0.94 kPa
[1]; 347.23 K
  vapor or sublimation pressure: 87.87 ± 0.93 kPa
[1]; 347.4 K
  vapor or sublimation pressure: 88.1 ± 0.94 kPa
[1]; 348.15 K
  vapor or sublimation pressure: 90.74 ± 0.95 kPa
[1]; 348.73 K
  vapor or sublimation pressure: 91.95 ± 0.96 kPa
[1]; 348.98 K
  vapor or sublimation pressure: 93.23 ± 0.96 kPa
[1]; 349.23 K
  vapor or sublimation pressure: 94.6 ± 0.97 kPa
[1]; 349.73 K
  vapor or sublimation pressure: 96.03 ± 0.98 kPa
[1]; 350.23 K
  vapor or sublimation pressure: 97.26 ± 0.98 kPa
[1]; 350.59 K
  vapor or sublimation pressure: 98.7 ± 0.99 kPa
[1]; 350.99 K
  vapor or sublimation pressure: 100 ± 1 kPa
[1]; 351.65 K
  vapor or sublimation pressure: 101.32 ± 1 kPa
[1]; 352.23 K
  vapor or sublimation pressure: 102.75 ± 1 kPa
[1]; 352.4 K
  vapor or sublimation pressure: 103.87 ± 1 kPa
[1]; 352.82 K
  vapor or sublimation pressure: 105.43 ± 1 kPa
[1]; 352.9 K
  vapor or sublimation pressure: 106.58 ± 1 kPa
[1]; 353.73 K
  vapor or sublimation pressure: 107.82 ± 1.1 kPa
[1]; 353.82 K
  vapor or sublimation pressure: 109.39 ± 1 kPa
[1]; 354.15 K
  vapor or sublimation pressure: 110.78 ± 1.1 kPa
[1]; 354.57 K
  vapor or sublimation pressure: 112.07 ± 1.1 kPa
[1]; 354.82 K
  vapor or sublimation pressure: 113.15 ± 1.1 kPa
[1]; 355.65 K
  vapor or sublimation pressure: 114.82 ± 1.1 kPa
[1]; 355.74 K
  vapor or sublimation pressure: 115.9 ± 1.1 kPa
[1]; 355.82 K
  vapor or sublimation pressure: 117.13 ± 1.1 kPa
[1]; 356.32 K
  vapor or sublimation pressure: 118.57 ± 1.1 kPa
[1]; 356.9 K
  vapor or sublimation pressure: 120.15 ± 1.1 kPa
[1]; 357.15 K
  vapor or sublimation pressure: 121.17 ± 1.1 kPa
[1]; 357.39 K
  vapor or sublimation pressure: 122.81 ± 1.1 kPa
[1]; 357.9 K
  vapor or sublimation pressure: 123.81 ± 1.1 kPa
[1]; 358.24 K
  vapor or sublimation pressure: 124.65 ± 1.1 kPa
[1]; 358.48 K
  vapor or sublimation pressure: 126.73 ± 1.1 kPa
[1]; 358.65 K
  vapor or sublimation pressure: 127.87 ± 1.1 kPa
[1]; 358.98 K
  vapor or sublimation pressure: 129.37 ± 1.1 kPa
[1]; 359.32 K
  vapor or sublimation pressure: 130.43 ± 1.1 kPa
[1]; 359.48 K
  vapor or sublimation pressure: 130.89 ± 1.1 kPa
[1]; 359.98 K
  vapor or sublimation pressure: 133.25 ± 1.2 kPa
[1]; 360.4 K
  vapor or sublimation pressure: 134.57 ± 1.2 kPa
[1]; 360.57 K
  vapor or sublimation pressure: 135.81 ± 1.2 kPa
[1]; 361.08 K
  vapor or sublimation pressure: 137.35 ± 1.2 kPa
[1]; 361.4 K
  vapor or sublimation pressure: 138.56 ± 1.2 kPa
[1]; 361.73 K
  vapor or sublimation pressure: 140 ± 1.2 kPa
[1]; 361.9 K
  vapor or sublimation pressure: 141.21 ± 1.2 kPa
[1]; 362.44 K
  vapor or sublimation pressure: 142.57 ± 1.2 kPa
[1]; 362.57 K
  vapor or sublimation pressure: 144.11 ± 1.2 kPa
[1]; 363.07 K
  vapor or sublimation pressure: 145.35 ± 1.2 kPa
[1]; 363.4 K
  vapor or sublimation pressure: 146.48 ± 1.2 kPa
[1]; 363.73 K
  vapor or sublimation pressure: 148.09 ± 1.2 kPa
[1]; 363.91 K
  vapor or sublimation pressure: 149.39 ± 1.2 kPa
[1]; 364.4 K
  vapor or sublimation pressure: 151.04 ± 1.2 kPa
[1]; 364.57 K
  vapor or sublimation pressure: 152.48 ± 1.3 kPa
[1]; 364.9 K
  vapor or sublimation pressure: 153.26 ± 1.3 kPa
[1]; 364.99 K
  vapor or sublimation pressure: 154.82 ± 1.3 kPa
[1]; 365.38 K
  vapor or sublimation pressure: 156.06 ± 1.3 kPa
[1]; 365.48 K
  vapor or sublimation pressure: 156.17 ± 1.3 kPa
[1]; 365.82 K
  vapor or sublimation pressure: 158.49 ± 1.3 kPa
[1]; 365.9 K
  vapor or sublimation pressure: 159.73 ± 1.3 kPa
[1]; 366.15 K
  vapor or sublimation pressure: 160.57 ± 1.3 kPa
[1]; 366.57 K
  vapor or sublimation pressure: 162.57 ± 1.3 kPa
[1]; 366.65 K
  vapor or sublimation pressure: 163.38 ± 1.3 kPa
[1]; 367.15 K
  vapor or sublimation pressure: 165.17 ± 1.3 kPa
[1]; 367.4 K
  vapor or sublimation pressure: 166.74 ± 1.3 kPa
[1]; 367.82 K
  vapor or sublimation pressure: 167.89 ± 1.3 kPa
[2]
  refractive index: 1.3641 ± 0.0007
